# From patent publication US20090054504A1 (KNOPP NEUROSCIENCES, INC., priority 2007, published 2009)
# Several values for one entry are separate records, joined by “and”; a condition that tells them apart may be missing. Equal entries are not always repeated. Where two headings read alike, the source gives them in different places.
# Assays:
# [1] = system: rats; details: 6-month study, any dose level
# [2] = molecular target: human cloned dopamine receptors (D3) (Homo sapiens, UniProt P35462); assay: biochemical
# Procedure: (§1) These concentrations were tested in cell lines expressing select human cloned dopamine receptors (D2S, D3).
# [3] = system: healthy adult volunteers; assay: clinical; details: for CL/F / Ue / Fe / λZ: mean ± SD
# Procedure: (§2) Safety observations included vital signs, physical examination, clinical laboratory tests, ECGs, and adverse event reporting. Blood and urine samples were collected pre-dose and for 72 hours post-dose to assess the pharmacokinetics.
# [4] = clinical; details: human, blood, oral
# Procedure: as §2
# [5] = system: rats
# Procedure: 3.3—Toxicology Studies. […] Following this study, 3- and 6-month repeat dose toxicology studies were completed at doses of 30, 100, and 300 mg/kg.
# [6] = molecular target: D1 dopamine receptor (Homo sapiens, UniProt P21728); details: literature and own data
# Procedure: as §1
# [7] = molecular target: D5 dopamine receptor (Homo sapiens, UniProt P21918); details: literature and own data
# Procedure: as §1
# [8] = system: non-naïve male beagle dogs
# Procedure: (§3) Doses were administered orally by gavage and clinical observations were taken continuously following dosing: hourly for the first four hours, and then twice daily cage-side observations for the duration of the inter-dose or post-dose interval. Observations were made of clinical signs, mortality, injury and availability of food and water. Animals were fasted for 24 hr prior to dosing. Dogs in each group were exposed to only one drug, or the combination; each dose was administered only once, with a subsequent dose administered after a recovery period of 4 days.
# [9] = clinical; details: human, oral, Fasted; for Cmax: mean ± SD; for Tmax: median
# Procedure: (§4) The first panel was administered a single IR dose of 50 mg, followed 48 hours later by 4½ days of multiple IR dosing (twice daily) at 50 mg Q12 hours. The second panel was administered a single IR dose of 100 mg, followed 48 hours later by 4½ days of multiple IR dosing (twice daily) at 100 mg Q12 hours. Safety observations included vital signs, physical examination, clinical laboratory tests, ECGs, and adverse event reporting. Blood samples were collected pre-dose on Day 1 and serially for 48 hours post-dose to assess the single-dose pharmacokinetics.
# [10] = system: minipigs; details: both, minipig, in vivo, 14 days
# Procedure: (§5) The 3- and 6-month repeat dose studies have now been completed at the 7.5, 25 and 50 mg/kg dose levels and the 9-month repeat dose study is ongoing.
# [11] = system: minipigs
# [12] = in vivo; details: both, minipig
# Procedure: as §5
# [13] = system: D2 dopamine receptor; assay: D2 binding affinity from journal publications (Schneider & Mierau 1987; Wong & Shrikhande 2003); details: range over the literature sources
# [14] = system: minipigs; details: 6-month study, any dose level
# [15] = system: healthy adult volunteers
# Procedure: as §4
# [16] = system: minipigs; details: past month 7, any dose level
# [17] = system: rodents; details: single oral dose; cited from earlier work
# [18] = system: restless legs syndrome patients; details: human trials; cited from earlier work
# [19] = system: monkeys treated with MPTP; details: from MPTP monkey dose
# [20] = system: Parkinson's disease patients; details: human trials; cited from earlier work
# [21] = system: monkeys treated with MPTP; details: motor deficits and Parkinson-like symptoms; cited from earlier work
# [22] = in vivo; details: male, dog
# Procedure: as §3
# [23] = system: dogs; details: single oral dose; cited from earlier work
# [24] = system: human subjects; details: cited from earlier work; for MRTD (maximum recommended therapeutic dose): FDA MRTD database
# [25] = blood, 50 mg, CL002, 50 mg Q12H (Day 1)
# [26] = blood, 50 mg, CL002, 50 mg Q12H (Day 7)
# [27] = in vivo, 100 mg, CL002, 100 mg Q12H (Day 1)
# [28] = in vivo, 100 mg, CL002, 100 mg Q12H (Day 7)
# [29] = CL002, 50 mg Q12H (Day 1), Fasted, mean ± SD
# [30] = CL002, 50 mg Q12H (Day 7), Fasted, mean ± SD
# [31] = CL002, 100 mg Q12H (Day 1), Fasted, mean ± SD
# [32] = CL002, 100 mg Q12H (Day 7), Fasted, mean ± SD
# [33] = Day 1, 50 mg IR oral, fasted, mean ± SD
# [34] = Day 1, 100 mg IR oral, fasted, mean ± SD
# [35] = Day 7, 50 mg after Q12H Days 3-6, fasted, mean ± SD
# [36] = Day 7, 100 mg after Q12H Days 3-6, fasted, mean ± SD
# [37] = male, beagle, dog, in vivo, 1 study day
# [38] = male, beagle, dog, in vivo, 8 study day
# Sequence of D1 dopamine receptor (P21728 whole entry): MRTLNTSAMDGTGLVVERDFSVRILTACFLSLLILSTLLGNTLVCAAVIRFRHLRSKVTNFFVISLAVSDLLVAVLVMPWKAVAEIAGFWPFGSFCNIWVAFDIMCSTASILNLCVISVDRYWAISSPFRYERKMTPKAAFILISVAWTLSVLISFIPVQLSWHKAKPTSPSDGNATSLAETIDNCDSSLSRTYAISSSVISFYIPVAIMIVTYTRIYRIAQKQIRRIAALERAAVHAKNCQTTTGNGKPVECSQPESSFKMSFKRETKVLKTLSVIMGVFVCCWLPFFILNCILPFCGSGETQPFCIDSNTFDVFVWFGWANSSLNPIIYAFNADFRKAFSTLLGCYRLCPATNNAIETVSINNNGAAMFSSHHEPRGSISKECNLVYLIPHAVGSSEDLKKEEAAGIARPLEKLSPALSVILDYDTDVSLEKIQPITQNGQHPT
# Sequence of D5 dopamine receptor (P21918 whole entry): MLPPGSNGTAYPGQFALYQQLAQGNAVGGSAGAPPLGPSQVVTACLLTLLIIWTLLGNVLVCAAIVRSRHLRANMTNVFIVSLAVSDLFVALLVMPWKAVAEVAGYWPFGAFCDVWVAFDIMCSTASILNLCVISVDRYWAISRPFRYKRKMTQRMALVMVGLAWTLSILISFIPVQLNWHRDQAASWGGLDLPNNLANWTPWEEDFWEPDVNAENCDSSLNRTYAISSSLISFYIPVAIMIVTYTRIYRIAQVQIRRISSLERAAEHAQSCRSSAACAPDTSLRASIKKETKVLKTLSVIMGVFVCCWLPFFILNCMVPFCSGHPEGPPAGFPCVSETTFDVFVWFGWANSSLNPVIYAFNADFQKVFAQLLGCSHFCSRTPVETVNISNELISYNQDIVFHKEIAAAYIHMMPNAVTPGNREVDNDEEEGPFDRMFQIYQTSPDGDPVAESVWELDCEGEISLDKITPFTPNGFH
# Sequence of human cloned dopamine receptors (D3) (P35462 whole entry): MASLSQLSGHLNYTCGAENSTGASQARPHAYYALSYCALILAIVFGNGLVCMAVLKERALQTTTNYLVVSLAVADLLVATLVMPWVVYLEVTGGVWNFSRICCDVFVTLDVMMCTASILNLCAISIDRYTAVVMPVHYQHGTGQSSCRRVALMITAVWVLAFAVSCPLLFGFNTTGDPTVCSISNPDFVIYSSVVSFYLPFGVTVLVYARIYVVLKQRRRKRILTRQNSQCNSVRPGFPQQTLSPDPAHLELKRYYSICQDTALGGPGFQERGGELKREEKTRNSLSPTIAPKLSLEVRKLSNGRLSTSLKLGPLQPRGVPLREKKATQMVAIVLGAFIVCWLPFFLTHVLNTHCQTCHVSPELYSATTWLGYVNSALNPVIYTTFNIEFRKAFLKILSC
smiles,measurement,setting,value
"CCCN[C@@H]1CCc2nc(N)sc2C1 [RPPX, (6R)-4,5,6,7-tetrahydro-N6-propyl-2,6-benzothiazole-diamine]","mortality between the 13-week and 26-week sacrifices, rats",[1],no mortalities at any dose level
same,IC50,[2],610 nM
same,CL/F,"[3]; CL001, 50 mg SD, Fasted",706 ± 182 mL/h
same,Ue,"[3]; CL001, 50 mg SD, Fasted",35.3 ± 5.19 ^ mg
same,CL/F,"[3]; CL001, 150 mg SD, Fasted",692 ± 183 mL/h
same,Ue,"[3]; CL001, 150 mg SD, Fasted",60.5 ± 7.04 ^ mg
same,CL/F,"[3]; CL001, 150 mg SD, second 150 mg line, Food printed Fasted",774 ± 165 mL/h
same,CL/F,"[3]; CL001, 300 mg SD, Fasted",659 ± 260 mL/h
same,Ue,"[3]; CL001, 300 mg SD, Fasted",198 ± 28.0 ^ mg
same,"Urinary excretion of unchanged drug, share of drug elimination",[3]; across dose levels,approximately 70%
same,subjects reporting at least one non-serious adverse event,"[3]; all 24 subjects (RPPX or placebo, blinded)",46%
same,subjects with mild dizziness (most frequent AE),"[3]; all subjects (RPPX or placebo, blinded)",21%
same,CL/F,"[3]; single oral 50 mg, fasted",706 ± 182 (6) mL/min
same,Fe,"[3]; single oral 50 mg, fasted",70.7 ± 10.4 (6) % Dose
same,Ue,"[3]; single oral 50 mg, fasted",35.3 ± 5.19 (6) mg
same,λZ,"[3]; single oral 50 mg, fasted",0.1064 ± 0.0171 (6) h^−1
same,CL/F,"[3]; single oral 150 mg, fasted",692 ± 183 (5) mL/min
same,Fe,"[3]; single oral 150 mg, fasted",40.3 ± 4.69 (6) % Dose
same,Ue,"[3]; single oral 150 mg, fasted",60.5 ± 7.04 (6) mg
same,λZ,"[3]; single oral 150 mg, fasted",0.1001 ± 0.0087 (5) h^−1
same,CL/F,"[3]; single oral 150 mg, fed",774 ± 165 (6) mL/min
same,λZ,"[3]; single oral 150 mg, fed",0.1152 ± 0.0256 (6) h^−1
same,CL/F,"[3]; single oral 300 mg, fasted",659 ± 260 (6) mL/min
same,Fe,"[3]; single oral 300 mg, fasted",65.8 ± 9.33 (6) % Dose
same,Ue,"[3]; single oral 300 mg, fasted",198 ± 28.0 (6) mg
same,λZ,"[3]; single oral 300 mg, fasted",0.1151 ± 0.0309 (6) h^−1
same,Cmax,[4]; 50 mg,125 ± 22 ng/mL
same,Tmax,[4]; 50 mg,2.04 h
same,Cmax,[4]; 150 mg,360 ± 60.4 ng/mL
same,Tmax,[4]; 150 mg,2.04 h
same,Cmax,[4]; 300 mg,781 ± 158 ng/mL
same,Tmax,[4]; 300 mg,1.96 h
same,"target organ toxicity by histopathology, 3-month study in rats","[5]; both, rat, in vivo, 300 mg/kg, 3 months",some target organ toxicity
same,"target organ toxicity by histopathology, 2-week study in rats","[5]; both, rat, in vivo, 14 days",No target organ toxicity
same,"mortality, 2-week study in rats",[5]; high dose of 500 mg/kg,caused mortality
same,interaction with D1 dopamine receptors,[6],no significant interaction
same,interaction with D5 dopamine receptors,[7],no significant interaction
same,"human equivalence dose of the dog MTD, for a 70 kg human subject",[8]; from dog data,"about 3,000 mg"
same,observable effects in dogs,"[8]; male, beagle, dog, in vivo, 4 days",no observable effects
same,Cmax,[9]; [25],139 ± 15.3 ng/mL
same,Cmax,[9]; [26],191 ± 20.9 ng/mL
same,Tmax,[9]; [25],1.83 h
same,Tmax,[9]; [26],1.75 h
same,Cmax,[9]; [27],248 ± 30.4 ng/mL
same,Cmax,[9]; [28],306 ± 55 ng/mL
same,Tmax,[9]; [27],1.92 h
same,Tmax,[9]; [28],2 h
same,"target organ toxicity by histopathology, 2-week study in minipigs",[10],No target organ toxicity
same,mortality in repeat dose studies in minipigs,"[11]; 75 mg/kg level, by month 2",mortalities
same,"target organ toxicity by histopathology after 3 months, minipigs","[11]; both, minipig, in vivo, 3 months",No target organ toxicity
same,NOAEL at 14 days,[12],≥ 75000 µg/kg
same,"binding affinity of RPPX at the D2 receptor, times lower than PPX, literature",[13],10-20 times and 9-21 times
same,"mortality / clinical observations between the 13-week and 26-week sacrifices, minipigs",[14],no mortalities attributed to test article or significant clinical observations
same,increase of AUC(0-12) from Day 1 to Day 7,[15]; 50 mg Q12H,40%
same,increase of Cmax from Day 1 to Day 7,[15]; 50 mg Q12H,37%
same,increase of AUC(0-12) from Day 1 to Day 7,[15]; 100 mg Q12H,38%
same,increase of Cmax from Day 1 to Day 7,[15]; 100 mg Q12H,24%
same,AUC (inf),[15]; [29],"1,502 ± 280 h*ng/mL"
same,AUC(0-t),[15]; [29],"1,463 ± 280 h*ng/mL"
same,AUC(0−12),[15]; [29],"1,035 ± 121 h*ng/mL"
same,CL/F,[15]; [29],571 ± 107 mL/h
same,AUC(0−12),[15]; [30],"1,449 ± 221 h*ng/mL"
same,CL/F,[15]; [30],585 ± 81.6 mL/h
same,AUC(0-t),[15]; [31],"2,545 ± 497 h*ng/mL"
same,AUC(0−12),[15]; [31],"1,776 ± 260 h*ng/mL"
same,CL/F,[15]; [31],665 ± 107 mL/h
same,AUC(0−12),[15]; [32],"2,465 ± 299 h*ng/mL"
same,CL/F,[15]; [32],684 ± 76.1 mL/h
same,CL/F,[15]; [33],571 ± 107 (6) mL/min
same,λz,[15]; [33],0.1132 ± 0.0230 (6) h^−1
same,CL/F,[15]; [34],665 ± 107 (6) mL/min
same,λz,[15]; [34],0.1073 ± 0.0161 (6) h^−1
same,CL/F,[15]; [35],585 ± 81.6 (6) mL/min
same,λz,[15]; [35],0.1025 ± 0.0186 (6) h^−1
same,CL/F,[15]; [36],684 ± 76.1 (6) mL/min
same,λz,[15]; [36],0.0894 ± 0.0117 (6) h^−1
same,"deaths / clinical observations, 9-month study in minipigs",[16],no deaths attributed to test article or significant clinical observations
"CCCN[C@H]1CCc2nc(N)sc2C1 [PPX, (6S)-4,5,6,7-tetrahydro-N6-propyl-2,6-benzothiazole-diamine]",IC50,[2],0.94 nM
same,immediate release doses at which deaths occurred (and above),[17],70000 to 105000 µg/kg
same,"lowest effective dose versus placebo, restless legs syndrome",[18],0.25 mg/day
same,interaction with D1 dopamine receptors,[6],no significant interaction
same,interaction with D5 dopamine receptors,[7],no significant interaction
same,"human dose equivalent to the dog NOAEL, for a 70 kg individual","[8]; IR dose, from dog data",0.05 mg
same,"human equivalence dose of the dog MTD, for a 70 kg human subject",[8]; from dog data,0.30 mg
same,Behavior/Activity: Activity decreased,"[8]; male, beagle, dog, in vivo",3/4
same,Excretion: Feces soft,"[8]; male, beagle, dog, in vivo",0/4
same,Excretion: Feces watery,"[8]; male, beagle, dog, in vivo",0/4
same,External Appearance: Lacrimation,"[8]; male, beagle, dog, in vivo",0/4
same,Eye/Ocular: Pupils dilated,"[8]; male, beagle, dog, in vivo",0/4
same,Pelage/Skin: Skin warm to touch,"[8]; male, beagle, dog, in vivo",0/4
same,Behavior/Activity: Convulsions - clonic,[8]; [37],0/4
same,Behavior/Activity: Salivation,[8]; [37],0/4
same,Behavior/Activity: Tremors,[8]; [37],1/4
same,Excretion: Emesis,[8]; [37],3/4
same,Excretion: Feces hard,[8]; [37],1/4
same,Excretion: Feces mucoid,[8]; [37],0/4
same,Behavior/Activity: Activity decreased,[8]; [38],0/4
same,Behavior/Activity: Tremors,[8]; [38],0/4
same,Excretion: Emesis,[8]; [38],0/4
same,Excretion: Feces hard,[8]; [38],0/4
same,equivalent human immediate release dose,[19],17 µg/kg
same,equivalent human immediate release dose for a 70 kg individual,[19],1.2 mg
same,"lowest effective oral immediate release dose versus placebo, Parkinson's disease",[20],1.1 mg/day
same,lowest effective oral immediate release dose,[21],53 µg/kg
same,NOAEL at 4 days,[22],0.7 µg/kg
same,MTD at 4 days,[22]; po,7.5 µg/kg
same,NOAEL at 4 days,[22]; po,1.25 µg/kg
same,dose at which vomiting occurred (and above),[23],≥ 0.7 µg/kg
same,MRTD (maximum recommended therapeutic dose),[24]; for a 70 lb. person,7.0 mg/day
same,MRTD (maximum recommended therapeutic dose),[24],0.11 mg/kg/day
same,immediate release dose shown to cause somnolence,[24]; human subjects,1.5 mg
same,starting daily dose not tolerated,[24]; naïve patient,greater than 0.20 mg
